# Results reported in patent US20070172957A1, “Methods of identifying anti-inflammatory macrolides” (TAISHO PHARMACEUTICAL CO., LTD., priority 2004, published 2007).
# Tested on: A549 cells
# Test: A549 microarray comparing macrolides with arachidonic acid pathway inhibitors, with IL-1β stimulation (Appendix C, Tables 6-9), and correlation analysis
# Assay type: cell-based
# Settings: A549 cells, +IL1b +/- inhibitor
# From the text: One inhibitor, triacsin C, acts on AA biosynthesis by inhibiting arachidonyl CoA synthetases, blocking the incorporation of free AA into phospholipids. Triacsin C is reasonably specific for AA compared to other fatty acids. However, triacsin C structurally resembles AA so it also may interfere with other steps in the AA pathway. Indomethacin is an inhibitor of COX1 and COX2 enzyme activities and therefore specifically blocks metabolism of AA into prostaglandins. […] It inhibits transcription of PLA2, and transcriptionally and post-transcriptionally regulates COX1 and COX2 activities. Dexamethasone has additional effects unrelated to AA through binding with the glucocorticoid receptor to glucocortcoid response elements.
# A549 cells were pre-incubated overnight (17 hours) with macrolides (10 μM FMA-9045, 50 μM clarithromycin, 50 μM roxithromycin, 50 μM josamycin) and 15 μM triacsin C, and pre-incubated 2 hours with 100 nM indomethacin and 100 nM dexamethasone. All cells then were stimulated for 4 hours with IL-1β, because the activation of PLA2 and downstream signaling events generally requires an inflammatory stimulus. The various treatment conditions are shown below in Table 4. Following macrolide and inhibitor pre-treatment and IL-1 stimulation, the cells were lysed, total RNA was collected, and the poly-A+ mRNA fraction was purified. The resulting microarray data (Appendix C) were analyzed using the methods described in the Examples above.
# The tables in Appendix C represent the effects of the arachidonic acid pathway inhibitors (“AA pathway inhibitors”) and the effects of the macrolides (“IL1+macrolide effects”). […] In both tables in Appendix C, the genes that meet this criterion (≧1.3 min fold change) are indicated in bold.
# Quantitative analysis was done to determine how well the responses to the different AA pathway inhibitors correlated. The correlation values were assigned a p-value to provide statistical confidence to the correlation value. Correlation between experiments, across all spots showing good detection, was assessed by cosine vector angle to generate the data shown in Tables 7-9. A correlation coefficient close to one indicates strong correlation, whereas a value near zero indicates no correlation. P-values for each correlation coefficient were estimated based on a Fisher permutation test. In this test, each spot's expression ratios were randomly re-ordered across experiments and the degree of correlation between experiments was then reassessed. This was done repeatedly.
structure (smiles),measurement,value
O=C(O)Cc1cc(I)c(Oc2ccc(O)c(I)c2)c(I)c1 [Triac],"min fold change, SpotID 46796 STC1 (stanniocalcin 1)",1.00
same,"min fold change, SpotID 46950 SERPINA3 (serine (or cysteine) proteinase inhibitor, clade A, member 3)",1.00
same,"min fold change, SpotID 46985 RIPK2 (RIP2, RICK; receptor-interacting serine-threonine kinase 2)",1.43
same,"min fold change, SpotID 47155 TNFAIP6 (tumor necrosis factor, alpha-induced protein 6)",1.02
same,"min fold change, SpotID 47166 SERPINA6 (serine (or cysteine) proteinase inhibitor, clade A, member 6)",1.36
same,"min fold change, SpotID 47193 STAT3 (signal transducer and activator of transcription 3)",1.32
same,"min fold change, SpotID 47332 SERPINB3 (serine (or cysteine) proteinase inhibitor, clade B (ovalbumin), member 3)",1.06
same,"min fold change, SpotID 47444 TKT (transketolase (Wernicke-Korsakoff syndrome))",1.16
same,"min fold change, SpotID 47569 STAT3 (signal transducer and activator of transcription 3)",1.19
same,"min fold change, SpotID 47697 TNFRSF6B (DcR3; tumor necrosis factor receptor superfamily, member 6b, decoy)",1.11
same,"min fold change, SpotID 47698 PTPRJ (protein tyrosine phosphatase, receptor type, J)",1.11
same,"min fold change, SpotID 47987 THBS1 (thrombospondin 1)",1.00
same,"min fold change, SpotID 48050 RPS6KA2 (ribosomal protein S6 kinase, 90 kD, polypeptide 2)",1.12
same,"min fold change, SpotID 48234 PTPRZ1 (PTP zeta; protein tyrosine phosphatase, receptor-type, Z polypeptide 1)",1.00
same,"min fold change, SpotID 48239 TLN1 (talin 1)",1.34
same,"min fold change, SpotID 48288 TRAF5 (TNF receptor-associated factor 5)",1.34
same,"min fold change, SpotID 48359 RIPK1 (receptor (TNFRSF)-interacting serine-threonine kinase 1)",1.00
same,"min fold change, SpotID 48392 RIPK1 (receptor (TNFRSF)-interacting serine-threonine kinase 1)",1.00
same,"min fold change, SpotID 48395 TNFRSF7 (CD27; tumor necrosis factor receptor superfamily, member 7)",1.09
same,"min fold change, SpotID 48485 UCP1 (uncoupling protein 1 (mitochondrial, proton carrier))",1.15
same,"min fold change, SpotID 48500 RPL13A (ribosomal protein L13a)",1.25
same,"min fold change, SpotID 48594 RPS6KA2 (ribosomal protein S6 kinase, 90 kD, polypeptide 2)",1.00
same,"min fold change, SpotID 48603 TEAD4 (TEA domain family member 4)",1.38
same,"min fold change, SpotID 49330 TNFRSF7 (CD27; tumor necrosis factor receptor superfamily, member 7)",1.51
same,"min fold change, SpotID 49899 WWOX (WW domain containing oxidoreductase)",1.51
same,"min fold change, SpotID 49901 TROAP (trophinin associated protein (tastin))",1.01
same,"min fold change, SpotID 50379 TNFRSF6 (FAS; tumor necrosis factor receptor superfamily, member 6)",1.04
same,"min fold change, SpotID 50428 RPLP0 (ribosomal protein, large, P0)",1.00
same,"min fold change, SpotID 50491 TNFRSF6B (DcR3; tumor necrosis factor receptor superfamily, member 6b, decoy)",1.36
same,"wtd means, SpotID 46796 STC1 (stanniocalcin 1)",1.05
same,"wtd means, SpotID 46950 SERPINA3 (serine (or cysteine) proteinase inhibitor, clade A, member 3)",1.06
same,"wtd means, SpotID 46985 RIPK2 (RIP2, RICK; receptor-interacting serine-threonine kinase 2)",1.70
same,"wtd means, SpotID 47155 TNFAIP6 (tumor necrosis factor, alpha-induced protein 6)",1.08
same,"wtd means, SpotID 47166 SERPINA6 (serine (or cysteine) proteinase inhibitor, clade A, member 6)",1.48
same,"wtd means, SpotID 47193 STAT3 (signal transducer and activator of transcription 3)",1.47
same,"wtd means, SpotID 47332 SERPINB3 (serine (or cysteine) proteinase inhibitor, clade B (ovalbumin), member 3)",1.22
same,"wtd means, SpotID 47444 TKT (transketolase (Wernicke-Korsakoff syndrome))",0.76
same,"wtd means, SpotID 47569 STAT3 (signal transducer and activator of transcription 3)",1.34
same,"wtd means, SpotID 47697 TNFRSF6B (DcR3; tumor necrosis factor receptor superfamily, member 6b, decoy)",1.24
same,"wtd means, SpotID 47698 PTPRJ (protein tyrosine phosphatase, receptor type, J)",1.17
same,"wtd means, SpotID 47987 THBS1 (thrombospondin 1)",0.87
same,"wtd means, SpotID 48234 PTPRZ1 (PTP zeta; protein tyrosine phosphatase, receptor-type, Z polypeptide 1)",1.00
same,"wtd means, SpotID 48239 TLN1 (talin 1)",1.41
same,"wtd means, SpotID 48288 TRAF5 (TNF receptor-associated factor 5)",1.60
same,"wtd means, SpotID 48359 RIPK1 (receptor (TNFRSF)-interacting serine-threonine kinase 1)",1.27
same,"wtd means, SpotID 48392 RIPK1 (receptor (TNFRSF)-interacting serine-threonine kinase 1)",1.08
same,"wtd means, SpotID 48395 TNFRSF7 (CD27; tumor necrosis factor receptor superfamily, member 7)",1.50
same,"wtd means, SpotID 48485 UCP1 (uncoupling protein 1 (mitochondrial, proton carrier))",1.59
same,"wtd means, SpotID 48500 RPL13A (ribosomal protein L13a)",1.37
same,"wtd means, SpotID 48603 TEAD4 (TEA domain family member 4)",1.65
same,"wtd means, SpotID 49330 TNFRSF7 (CD27; tumor necrosis factor receptor superfamily, member 7)",1.73
same,"wtd means, SpotID 49899 WWOX (WW domain containing oxidoreductase)",1.62
same,"wtd means, SpotID 49901 TROAP (trophinin associated protein (tastin))",0.90
same,"wtd means, SpotID 50379 TNFRSF6 (FAS; tumor necrosis factor receptor superfamily, member 6)",1.41
same,"wtd means, SpotID 50428 RPLP0 (ribosomal protein, large, P0)",0.84
same,"wtd means, SpotID 50491 TNFRSF6B (DcR3; tumor necrosis factor receptor superfamily, member 6b, decoy)",1.56
